# Test results: patent US8822449B2, “Substituted aminoindanes and analogs thereof, and the pharmaceutical use thereof” (Sanofi, priority 2008, dated 2014)
# Target: T1, sodium-proton exchanger of subtype 3 (NHE3) (Homo sapiens, UniProt P48764)
# T1 construct: expressed in transfected cells
# T1 sequence (P48764 26-834): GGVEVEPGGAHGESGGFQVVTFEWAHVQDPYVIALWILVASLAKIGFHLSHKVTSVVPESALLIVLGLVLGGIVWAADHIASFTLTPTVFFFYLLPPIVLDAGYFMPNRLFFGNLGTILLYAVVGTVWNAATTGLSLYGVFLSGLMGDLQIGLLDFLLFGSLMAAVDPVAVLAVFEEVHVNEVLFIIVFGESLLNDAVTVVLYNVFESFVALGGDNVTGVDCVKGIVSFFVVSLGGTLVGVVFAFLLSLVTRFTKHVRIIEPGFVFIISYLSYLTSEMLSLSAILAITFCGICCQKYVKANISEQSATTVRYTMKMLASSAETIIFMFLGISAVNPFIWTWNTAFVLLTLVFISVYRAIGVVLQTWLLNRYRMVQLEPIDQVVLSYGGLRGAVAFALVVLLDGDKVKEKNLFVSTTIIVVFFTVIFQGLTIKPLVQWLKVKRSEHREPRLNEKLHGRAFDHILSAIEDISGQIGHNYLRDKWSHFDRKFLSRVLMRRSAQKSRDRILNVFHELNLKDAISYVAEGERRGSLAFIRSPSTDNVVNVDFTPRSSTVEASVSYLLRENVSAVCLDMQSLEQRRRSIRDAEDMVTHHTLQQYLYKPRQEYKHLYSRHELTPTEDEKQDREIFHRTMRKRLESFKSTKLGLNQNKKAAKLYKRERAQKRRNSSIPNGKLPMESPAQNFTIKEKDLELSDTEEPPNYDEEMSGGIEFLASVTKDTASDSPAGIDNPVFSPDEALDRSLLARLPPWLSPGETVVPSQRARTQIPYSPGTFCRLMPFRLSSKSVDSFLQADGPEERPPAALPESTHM
# Assay: Recovery of intracellular pH (pHi) after acidification in LAP1 cells stably expressing NHE3 (BCECF fluorescence, FLIPR)
# Assay type: cell-based
# Conditions: LAP1 cells stably expressing NHE3; pH recovery after acidification; range 1 is % inhibition at 10 μM; read-out: Activity range (inhibitory effect on NHE3)
IC50 [nM],inhibition at 10 µM [%],Structure (SMILES)
< 1000,–,"Cc1nnc(C)n1-c1ccc(O[C@H]2c3cc(Cl)ccc3C[C@@H]2N2CC[C@H](F)C2)c(Cl)c1 [Example 559, 4-{3-chloro-4-[trans-(1S,2S)-6-chloro-2-((S)-3-fluoropyrrolidin-1-yl)indan-1-yloxy]phenyl}-3,5-dimethyl-4H-[1,2,4]triazole]"
< 1000,–,"Cc1nnc(C)n1-c1ccc(O[C@H]2c3cc(Cl)cc(Cl)c3C[C@@H]2N2CC[C@@H](C#N)C2)cc1 [Example 134, (R)-1-{trans-(1S,2S)-4,6-dichloro-1-[4-(3,5-dimethyl-[1,2,4]triazol-4-yl)phenoxy]indan-2-yl}pyrrolidine-3-carbonitrile]"
< 1000,–,"CS(=O)(=O)c1ccc(O[C@H]2c3cc(Cl)cc(Cl)c3C[C@@H]2N2CC[C@@H](NCCF)C2)cc1 [Example 226, {(R)-1-[trans-(1S,2S)-4,6-dichloro-1-(4-methanesulfonylphenoxy)indan-2-yl]pyrrolidin-3-yl}-(2-fluoroethyl)amine]"
< 1000,–,"CS(=O)(=O)c1ccc(O[C@H]2c3ccccc3C[C@@H]2N2CCCC2)cc1 (racemic) [Example 273, 1-[rac-trans-(1,2)-1-(4-methanesulfonylphenoxy)indan-2-yl]pyrrolidine]"
–,20 to 50,"N[C@@H]1CCCN([C@H]2CCc3ccccc3[C@@H]2Oc2ccc(N3CCNCC3)cc2)C1 (racemic) [Example 75, (R)-1-[rac-trans-(1,2)-1-(4-piperazin-1-ylphenoxy)-1,2,3,4-tetrahydronaphthalen-2-yl]piperidin-3-ylamine]"
< 1000,–,"CC(=O)Nc1cccc(O[C@H]2c3ccccc3C[C@@H]2N2CCC[C@@H](NCCF)C2)c1 [Example 631, N-(3-{trans-(1S,2S)-2-[(R)-3-(2-fluoroethylamino)piperidin-1-yl]indan-1-yloxy}phenyl)-acetamide]"
1000 to 10000,–,"CS(=O)(=O)c1ccc(O[C@H]2c3cc(Cl)c(Cl)cc3C[C@@H]2N2CCCNCC2)cc1 (racemic) [Example 286, 1-[rac-trans-(1,2)-5,6-dichloro-1-(4-methanesulfonylphenoxy)indan-2-yl]-[1,4]diazepane]"
< 1000,–,"Cc1cc(O[C@H]2c3cc(F)cc(Cl)c3C[C@@H]2N2CCNCC2)ccc1S(C)(=O)=O (racemic) [Example 281, 1-[rac-trans-(1,2)-4-chloro-6-fluoro-1-(4-methanesulfonyl-3-methylphenoxy)indan-2-yl]piperazine]"
–,20 to 50,"CC(C)c1nc(C(C)(C)C)cn1-c1ccc(O[C@H]2c3cc(Cl)cc(F)c3C[C@@H]2N2CC[C@@H](O)C2)cc1 [Example 724, (R)-1-{trans-(1S,2S)-1-[4-(4-tert-Butyl-2-isopropyl-imidazol-1-yl)-phenoxy]-6-chloro-4-fluoro-indan-2-yl}-pyrrolidin-3-ol]"
< 1000,–,"Cc1cc(-n2c(C)nnc2C)ccc1O[C@H]1c2cc(Cl)cc(Cl)c2C[C@@H]1N1CC[C@@H](O)C1 [Example 131, (R)-1-{trans-(1S,2S)-4,6-dichloro-1-[4-(3,5-dimethyl-[1,2,4]triazol-4-yl)-2-methylphenoxy]indan-2-yl}pyrrolidin-3-ol]"
1000 to 10000,–,"COC(=O)c1ccc(O[C@H]2c3ccccc3C[C@@H]2N2CCCC2)cc1 (racemic) [Example 467, 4-(rac-trans-(1,2)-2-pyrrolidin-1-ylindan-1-yloxy)benzoic acid methyl ester]"
–,20 to 50,"CSc1ccc(O[C@H]2c3ccccc3CC[C@@H]2N2CCC[C@@H](N)C2)cc1 (racemic) [Example 74, (R)-1-[rac-trans-(1,2)-1-(4-methylsulfanylphenoxy)-1,2,3,4-tetrahydronaphthalen-2-yl]piperidin-3-ylamine]"
–,20 to 50,"Cc1ccc(O[C@H]2c3ccccc3CC[C@@H]2N2CCC[C@H](N)C2)c(Br)c1 (racemic) [Example 150, (S)-1-[rac-trans-(1,2)-1-(2-bromo-4-methylphenoxy)-1,2,3,4-tetrahydronaphthalen-2-yl]piperidin-3-ylamine]"
1000 to 10000,–,"Cc1cccc2c1C[C@H](N1CCCC1)[C@H]2Oc1ccc(S(N)(=O)=O)cc1 (racemic) [Example 472, 4-(rac-trans-(1,2)-4-methyl-2-pyrrolidin-1-ylindan-1-yloxy)benzenesulfonamide]"
1000 to 10000,–,"Cc1nnc(C)n1-c1ccc(O[C@H]2c3cc(Cl)ccc3C[C@@H]2N2CCS(=O)(=O)CC2)c(Cl)c1 [Example 567, 4-{trans-(1S,2S)-6-chloro-1-[2-chloro-4-(3,5-dimethyl-[1,2,4]triazol-4-yl)phenoxy]indan-2-yl}thiomorpholine 1,1-dioxide]"
< 1000,–,"CC(=O)Nc1cccc(O[C@@H]2c3ccccc3C[C@H]2N2CCC[C@@H](N)C2)c1 (racemic) [Example 679, N-{3-[rac-trans-(1,2)-2-((R)-3-aminopiperidin-1-yl)indan-1-yloxy]phenyl}acetamide]"
–,20 to 50,"CN(C)[C@H]1Cc2c(Cl)cc(Cl)cc2[C@@H]1Oc1ccc(-n2ccnc2)cc1 (racemic) [Example 216, [rac-trans-(1,2)-4,6-dichloro-1-(4-imidazol-1-ylphenoxy)indan-2-yl]dimethylamine]"
–,20 to 50,"CS(=O)(=O)c1ccc(O[C@H]2c3cc(Cl)cc(Cl)c3C[C@@H]2N2CCNC(C(F)(F)F)C2)cc1 (mixture of isomers) [Example 301, 1-[trans-(1S,2S)-4,6-dichloro-1-(4-methanesulfonylphenoxy)indan-2-yl]-3-trifluoromethylpiperazine]"
< 1000,–,"O=C1CCC(=O)N1c1ccc(O[C@H]2c3cc(Cl)cc(Cl)c3C[C@@H]2N2CC[C@@H](O)C2)c(Cl)c1 [Example 322, 1-{3-chloro-4-[(1S,2S)-4,6-dichloro-2-((R)-3-hydroxypyrrolidin-1-yl)indan-1-yloxy]phenyl}pyrrolidine-2,5-dione]"
< 1000,–,"CN(c1ccc(O[C@H]2c3cc(Cl)cc(Cl)c3C[C@@H]2N2CC[C@@H](O)C2)cc1)S(C)(=O)=O [Example 698, N-{4-[(1S,2S)-4,6-dichloro-2-((R)-3-hydroxypyrrolidin-1-yl)indan-1-yloxy]phenyl}-N-methylmethanesulfonamide]"
< 1000,–,"CS(=O)(=O)c1ccc(O[C@H]2c3cc(Cl)cc(Cl)c3C[C@@H]2N2C[C@H]3CNC[C@H]3C2)cc1 [Example 3, 2-[trans-(1S,2S)-4,6-dichloro-1-(4-methanesulfonylphenoxy)indan-2-yl]octahydropyrrolo[3,4-c]pyrrole]"
1000 to 10000,–,"Cc1nn(-c2ccc(O[C@H]3c4cc(Cl)cc(Cl)c4C[C@@H]3N3CC[C@@H](O)C3)cc2)c(=O)o1 [Example 733, 3-{4-[trans-(1S,2S)-4,6-Dichloro-2-((R)-3-hydroxy-pyrrolidin-1-yl)-indan-1-yloxy]-phenyl}-5-methyl-3H-[1,3,4]oxadiazol-2-one]"
< 1000,–,"CN1CCCN([C@H]2Cc3c(Cl)cc(Cl)cc3[C@@H]2Oc2ccc(S(C)(=O)=O)cc2)CC1 (racemic) [Example 279, 1-[rac-trans-(1,2)-4,6-dichloro-1-(4-methanesulfonylphenoxy)indan-2-yl]-4-methyl-[1,4]diazepane]"
< 1000,–,"Cc1cn(-c2ccc(O[C@H]3c4cc(Cl)cc(F)c4C[C@@H]3N3CC[C@@H](O)C3)c(F)c2)c(C)n1 [Example 738, (R)-1-{trans-(1S,2S)-6-Chloro-1-[4-(2,4-dimethyl-imidazol-1-yl)-2-fluoro-phenoxy]-4-fluoro-indan-2-yl}-pyrrolidin-3-ol]"
< 1000,–,"NS(=O)(=O)c1ccc(O[C@H]2c3ccccc3C[C@@H]2N2CCCC2)c(F)c1 (racemic) [Example 451, 3-fluoro-4-(2-pyrrolidin-1-ylindan-1-yloxy)benzenesulfonamide]"
< 1000,–,"NC(=O)c1cccc(O[C@@H]2c3ccccc3C[C@H]2N2CCC[C@@H](N)C2)c1 (racemic) [Example 411, 3-[rac-trans-(1,2)-2-((R)-3-aminopiperidin-1-yl)indan-1-yloxy]benzamide]"
–,20 to 50,"O=C(O[C@H]1c2ccccc2C[C@@H]1N1CCCC1)c1ccc(N2CCCC2=O)cc1 [Example 461, 4-(2-Oxopyrrolidin-1-yl)benzoic acid (1S,2S)-2-pyrrolidin-1-ylindan-1-yl ester]"
1000 to 10000,–,"Cc1ccc(O[C@@H]2c3ccccc3C[C@H]2N2C[C@H]3CNC[C@H]3C2)c(Br)c1 (racemic) [Example 10, 2-[rac-trans-(1,2)-1-(2-bromo-4-methylphenoxy)indan-2-yl]octahydropyrrolo[3,4-c]pyrrole]"

Structure (SMILES),IC50 [nM],inhibition at 10 µM [%]
"NCCc1c[nH]c2ccc(O[C@H]3c4ccccc4CC[C@@H]3N3CCC[C@H](N)C3)cc12 (racemic) [Example 201, (S)-1-{rac-trans-(1,2)-1-[3-(2-aminoethyl)-1H-indol-5-yloxy]-1,2,3,4-tetrahydronaphthalen-2-yl}piperidin-3-ylamine]",1000 to 10000,–
"CS(=O)(=O)c1ccc(OC2c3ccccc3CC2N2CCCC2)c(Cl)c1 (racemic) [Example 265, 1-[rac-trans-(1,2)-1-(2-chloro-4-methanesulfonylphenoxy)indan-2-yl]pyrrolidine]",< 1000,–
